Experimental data reported in patent US20120128706A1, “IMMUNE ADJUVANT COMPRISING ATP” (priority 2007, published 2012).

Tests used:
Balb/c mice [1] = test: Measurement of IgG1/IgG2 ratio in blood samples as an index of Th2/Th1 balance (Test Example 2); format: in vivo; settings: for IgG1/IgG2 ratio (given as average of the absorbance): mouse, in vivo
Experimental: The blood sample collected on the 25th day from the start of the test was provided, and the IgG1/IgG2 ratio was measured as an index of Th2/Th1 balance.
Further, a blood sample obtained by inoculating only the antigenic substance by intraperitoneal administration instead of the dermal administration at the same time as in the administration schedule in Test Example 1 was used as a control blood sample for comparison.
The IgG1/IgG2 ratio was measured with a Mouse Monoclonal Antibody Isotyping Reagents kit (SIGMA).
Specifically, a mouse serum was diluted with PBS by a factor of 1000 to give a solution. The solution (100 μL) was added to wells in a plate and was incubated at 37° C. for one hr. Next, each well was washed three times with PBS, and 100 μL of isotyping specific reagents (reagents containing IgA, IgG1, IgG2a, and IgG2b), which had been diluted by a factor of 1000, were added to the wells followed by incubation at room temperature for 30 min. Each well was washed three times with PBST. A peroxidase labelled mouse IgG (manufactured by SIGMA) (100 μL), which had been diluted with PBST by a factor of 5000, was added to the wells, and the wells were allowed to stand at room temperature for one hr. The wells were then washed three times with PBST. Thereafter, ABTS was added as a chromophoric substrate, and incubation was carried out for 5 to 10 min. For each well, the absorbance was measured with Multiscan Ascent (manufactured by Thermo Labsystems, wave length 405 nm).

Balb/c mice [2] = test: Production amount of antibody by ELISA after dermal administration of antigenic substance with immunoadjuvant (Test Example 1); format: in vivo

Row | Compound | IgG1/IgG2 ratio (given as average of the absorbance) (Balb/c mice [1]) | average±standard error of the absorbance (amount of antibody in mouse serum by ELISA) (Balb/c mice [2]; mouse, in vivo) | Th2/Th1 balance (type of immunity induced) (Balb/c mice [1]; from IgG1/IgG2 ratio, compared with antigenic substance only intraperitoneally or with cholera toxin) | average±standard error of the absorbance (amount of antibody in mouse serum by ELISA) (Balb/c mice [2]; serum sample on the 25th day from start of test, dermal administration by tape preparation, serum diluted 1000-fold, wavelength 405 nm, n=4)
1 | cholera toxin [reference compound] | 1.46 | 0.551±0.202 |  | 
2 | Nc1ncnc2c1ncn2[C@@H]1O[C@H](COP(=O)(O)OP(=O)(O)OP(=O)(O)O)[C@@H](O)[C@H]1O [ATP, adenosine triphosphate] | 2.28 |  | Th2 cells are predominant | 0.670±0.033
